# Assay results from PubChem BioAssay (NCI).
#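 Each compound was tested at five concentrations against cells in 96-well plates for 48 hours. Definition used: TGI = concentration required for complete inhibition of growth.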
# Columns and labels:
# Assay in all cases: NCI-60 cell line screen, 48 h
# [1] = system: OVCAR-4 ovarian
# [2] = system: MALME-3M melanoma
# [3] = system: HCT-116 colon
# [4] = system: CCRF-CEM leukemia
# [5] = system: UACC-62 melanoma
# [6] = system: HL-60(TB) leukemia
# [7] = system: EKVX NSCLC
# [8] = system: SK-OV-3 ovarian
# [9] = system: NCI-H23 lung
# [10] = system: SNB-78 CNS
# [11] = system: LOX IMVI melanoma
# [12] = system: NCI-H522 lung
# [13] = system: A549 NSCLC
# [14] = system: LXFL 529 NSCLC
# [15] = system: SW-620 colon
# [16] = system: K-562 leukemia
# [17] = system: RPMI-8226 leukemia
# [18] = system: DMS 114 small cell lung
# [19] = system: U251 CNS
# [20] = system: CAKI-1 renal
# [21] = system: UACC-257 melanoma
# [22] = system: M19-MEL melanoma
# [23] = system: SNB-75 CNS
# [24] = system: OVCAR-5 ovarian
# [25] = system: HOP-62 NSCLC
# [26] = system: IGROV1 ovarian
# [27] = system: M14 melanoma
# [28] = system: SF-539 CNS
# [29] = system: OVCAR-8 ovarian
# [30] = system: SR leukemia
# [31] = system: ACHN renal
# [32] = system: NCI-H226 lung
# [33] = system: UO-31 renal
# [34] = system: KM12 colon
# [35] = system: SF-268 CNS
# [36] = system: COLO 205 colon
# [37] = system: HOP-18 NSCLC
# [38] = system: SK-MEL-5 melanoma
# [39] = system: A498 renal
# [40] = system: SF-295 CNS
# [41] = system: OVCAR-3 ovarian
# [42] = system: SN12C renal
# [43] = system: MOLT-4 leukemia
# [44] = system: KM20L2 colon
# [45] = system: DLD-1 colon
# [46] = system: HCC-2998 colon
# [47] = system: SK-MEL-2 melanoma
# [48] = system: SK-MEL-28 melanoma
# [49] = system: HT29 colon
# [50] = system: NCI-H460 lung
# [51] = system: SNB-19 CNS
# [52] = system: HCT-15 colon
# [53] = system: 786-0 renal
# [54] = system: RXF 393 renal
# [55] = system: TK-10 renal
# [56] = system: DMS 273 small cell lung
# [57] = system: HOP-92 NSCLC
compound,measurement,setting,value
C/C(=C1/N=C(c2cc([N+](=O)[O-])ccc2Cl)N(c2ccc(Br)cc2)C1=O)c1cc2ccccc2oc1=O,TGI,[1],> 100 µM
same,TGI,[2],> 100 µM
same,TGI,[3],> 100 µM
same,TGI,[4],> 100 µM
same,TGI,[5],> 100 µM
same,TGI,[6],> 100 µM
same,TGI,[7],> 100 µM
same,TGI,[8],> 100 µM
same,TGI,[9],> 100 µM
same,TGI,[10],> 100 µM
same,TGI,[11],> 100 µM
same,TGI,[12],52.4 µM
same,TGI,[13],> 100 µM
same,TGI,[14],> 100 µM
same,TGI,[15],> 100 µM
same,TGI,[16],> 100 µM
same,TGI,[17],> 100 µM
same,TGI,[18],> 100 µM
same,TGI,[19],> 100 µM
same,TGI,[20],> 100 µM
same,TGI,[21],> 100 µM
same,TGI,[22],> 100 µM
same,TGI,[23],> 100 µM
same,TGI,[24],> 100 µM
same,TGI,[25],> 100 µM
same,TGI,[26],> 100 µM
same,TGI,[27],> 100 µM
same,TGI,[28],> 100 µM
same,TGI,[29],> 100 µM
same,TGI,[30],> 100 µM
same,TGI,[31],> 100 µM
same,TGI,[32],> 100 µM
same,TGI,[33],> 100 µM
same,TGI,[34],> 100 µM
same,TGI,[35],> 100 µM
same,TGI,[36],21.8 µM
same,TGI,[37],> 100 µM
same,TGI,[38],> 100 µM
same,TGI,[39],66.8 µM
same,TGI,[40],> 100 µM
same,TGI,[41],> 100 µM
same,TGI,[42],> 100 µM
same,TGI,[43],> 100 µM
same,TGI,[44],> 100 µM
same,TGI,[45],> 100 µM
same,TGI,[46],65.1 µM
same,TGI,[47],> 100 µM
same,TGI,[48],> 100 µM
same,TGI,[49],> 100 µM
same,TGI,[50],> 100 µM
same,TGI,[51],> 100 µM
same,TGI,[52],> 100 µM
O=C1CC2C=CC1C2CO (stereo unspecified),TGI,[1],> 100 µM
same,TGI,[2],> 100 µM
same,TGI,[3],> 100 µM
same,TGI,[4],> 100 µM
same,TGI,[5],> 100 µM
same,TGI,[6],> 100 µM
same,TGI,[7],> 100 µM
same,TGI,[8],> 100 µM
same,TGI,[10],> 100 µM
same,TGI,[11],> 100 µM
same,TGI,[12],> 100 µM
same,TGI,[13],> 100 µM
same,TGI,[53],> 100 µM
same,TGI,[14],> 100 µM
same,TGI,[15],> 100 µM
same,TGI,[17],> 100 µM
same,TGI,[18],> 100 µM
same,TGI,[19],> 100 µM
same,TGI,[20],> 100 µM
same,TGI,[21],> 100 µM
same,TGI,[22],> 100 µM
same,TGI,[54],> 100 µM
same,TGI,[23],> 100 µM
same,TGI,[24],> 100 µM
same,TGI,[25],> 100 µM
same,TGI,[55],> 100 µM
same,TGI,[26],> 100 µM
same,TGI,[27],> 100 µM
same,TGI,[28],> 100 µM
same,TGI,[29],> 100 µM
same,TGI,[30],> 100 µM
same,TGI,[31],> 100 µM
same,TGI,[32],> 100 µM
same,TGI,[33],> 100 µM
same,TGI,[34],> 100 µM
same,TGI,[35],> 100 µM
same,TGI,[36],> 100 µM
same,TGI,[37],> 100 µM
same,TGI,[38],> 100 µM
same,TGI,[39],> 100 µM
same,TGI,[40],> 100 µM
same,TGI,[56],> 100 µM
same,TGI,[57],> 100 µM
same,TGI,[41],> 100 µM
same,TGI,[42],> 100 µM
same,TGI,[43],> 100 µM
same,TGI,[44],> 100 µM
same,TGI,[45],> 100 µM
same,TGI,[46],> 100 µM
same,TGI,[48],> 100 µM
same,TGI,[49],> 100 µM
same,TGI,[50],> 100 µM
same,TGI,[51],> 100 µM
same,TGI,[52],> 100 µM
